# Results taken from patent EP4741395A1, “NOVEL COMPOUND SENSITIVE TO NITROGEN MONOXIDE AND PHARMACEUTICAL COMPOSITION COMPRISING SAME” (Omniamed Co. Ltd, priority 2023, dated 2025).
# Columns and labels:
# [1] = Efficacy on collagen-induced rheumatoid arthritis (arthritis score); format: in vivo, DBA/1 male mice
# Procedure: (§1) The experimental animals were 30 8-week-old DBA/1 male mice. […] The number of normal mice was set to five in order to minimize the number of experimental animals. The group administered with Compound (1) consisted of 5 to 6 mice, a minimal number required to obtain statistically meaningful data given the limited amount of the drug.
# (§2) In order to establish a rheumatoid arthritis model, 100 µL of a mixture solution in which 2 mg/mL of chick type II collagen and 1 mg/mL of Complete Freund's Adjuvant (CFA) were mixed in a ratio of 1:1 was administered intradermally to each of the mouse tails. After 19 days, 100 µL of an emulsion in which 2 mg/mL of chick type II collagen and Incomplete Freund's Adjuvant (IFA) were mixed in a ratio of 1:1 was administered intradermally to each of the mouse tails.
# The test substances of Table 23 were administered orally every day according to the drug dosing period and dosing frequency. As for the rheumatoid arthritis score (arthritis score), the score of each of the four paws was quantified according to the criteria shown in the following Table 24, and the individual scores were summed to generate the final score.
# as §1, with “31” for “30”, “(11)” for “(1)”, “5” for “5 to 6”, “drug. Each of the remaining groups consisted of 7 mice, with two extra mice added to account for experimental error.” for “drug.”
# as §2
# Oral administration was conducted daily according to the dose, dosing frequency and dosing period of Table 25. Based on the criteria shown in Table 24, rheumatoid arthritis score for the four paws were quantified and summed to generate the score.
# [2] = molecular target: JAK 1 (Homo sapiens, UniProt P23458); test: JAK Human TK kinase enzymatic radiometric assay (Eurofins), JAK 1; conditions: value close to 100 indicates low JAK activity of the compound
# JAK 1, sequence (P23458 whole entry): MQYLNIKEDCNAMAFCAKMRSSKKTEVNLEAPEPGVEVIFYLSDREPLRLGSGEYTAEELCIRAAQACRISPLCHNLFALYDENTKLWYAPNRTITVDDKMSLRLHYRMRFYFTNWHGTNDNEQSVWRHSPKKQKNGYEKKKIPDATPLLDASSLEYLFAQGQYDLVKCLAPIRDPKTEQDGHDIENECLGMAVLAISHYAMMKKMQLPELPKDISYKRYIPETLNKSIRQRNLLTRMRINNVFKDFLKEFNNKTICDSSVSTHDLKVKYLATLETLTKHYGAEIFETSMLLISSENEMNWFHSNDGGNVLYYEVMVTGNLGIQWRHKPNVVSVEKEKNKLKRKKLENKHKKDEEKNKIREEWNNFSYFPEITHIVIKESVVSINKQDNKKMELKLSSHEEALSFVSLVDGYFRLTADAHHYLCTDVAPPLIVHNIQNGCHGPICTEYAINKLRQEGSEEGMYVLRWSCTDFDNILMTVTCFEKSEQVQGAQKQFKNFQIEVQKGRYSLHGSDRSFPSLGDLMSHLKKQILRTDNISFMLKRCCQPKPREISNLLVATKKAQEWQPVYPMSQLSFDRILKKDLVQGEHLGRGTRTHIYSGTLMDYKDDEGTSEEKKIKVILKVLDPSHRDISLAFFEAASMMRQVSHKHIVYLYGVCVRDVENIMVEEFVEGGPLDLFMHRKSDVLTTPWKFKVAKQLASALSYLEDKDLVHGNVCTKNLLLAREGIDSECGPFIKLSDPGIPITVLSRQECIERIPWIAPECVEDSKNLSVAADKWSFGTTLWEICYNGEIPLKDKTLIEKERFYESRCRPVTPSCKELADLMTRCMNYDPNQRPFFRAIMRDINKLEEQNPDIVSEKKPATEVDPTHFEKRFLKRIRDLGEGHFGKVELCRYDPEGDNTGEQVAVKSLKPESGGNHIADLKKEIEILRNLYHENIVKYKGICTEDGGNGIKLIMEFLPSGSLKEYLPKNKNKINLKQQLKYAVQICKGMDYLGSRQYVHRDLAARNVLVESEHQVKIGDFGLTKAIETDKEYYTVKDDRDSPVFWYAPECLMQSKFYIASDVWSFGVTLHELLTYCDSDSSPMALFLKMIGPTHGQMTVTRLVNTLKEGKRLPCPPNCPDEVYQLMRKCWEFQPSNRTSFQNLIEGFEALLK
# [3] = molecular target: T1, JAK 3 (Homo sapiens, UniProt P52333); test: JAK Human TK kinase enzymatic radiometric assay (Eurofins), JAK 3; format: biochemical; set-up: unit not given here; conditions: value close to 100 indicates low JAK activity of the compound
# T1 construct: purchased Eurofins Scientific (assay service)
# T1 sequence (P52333 1-1124): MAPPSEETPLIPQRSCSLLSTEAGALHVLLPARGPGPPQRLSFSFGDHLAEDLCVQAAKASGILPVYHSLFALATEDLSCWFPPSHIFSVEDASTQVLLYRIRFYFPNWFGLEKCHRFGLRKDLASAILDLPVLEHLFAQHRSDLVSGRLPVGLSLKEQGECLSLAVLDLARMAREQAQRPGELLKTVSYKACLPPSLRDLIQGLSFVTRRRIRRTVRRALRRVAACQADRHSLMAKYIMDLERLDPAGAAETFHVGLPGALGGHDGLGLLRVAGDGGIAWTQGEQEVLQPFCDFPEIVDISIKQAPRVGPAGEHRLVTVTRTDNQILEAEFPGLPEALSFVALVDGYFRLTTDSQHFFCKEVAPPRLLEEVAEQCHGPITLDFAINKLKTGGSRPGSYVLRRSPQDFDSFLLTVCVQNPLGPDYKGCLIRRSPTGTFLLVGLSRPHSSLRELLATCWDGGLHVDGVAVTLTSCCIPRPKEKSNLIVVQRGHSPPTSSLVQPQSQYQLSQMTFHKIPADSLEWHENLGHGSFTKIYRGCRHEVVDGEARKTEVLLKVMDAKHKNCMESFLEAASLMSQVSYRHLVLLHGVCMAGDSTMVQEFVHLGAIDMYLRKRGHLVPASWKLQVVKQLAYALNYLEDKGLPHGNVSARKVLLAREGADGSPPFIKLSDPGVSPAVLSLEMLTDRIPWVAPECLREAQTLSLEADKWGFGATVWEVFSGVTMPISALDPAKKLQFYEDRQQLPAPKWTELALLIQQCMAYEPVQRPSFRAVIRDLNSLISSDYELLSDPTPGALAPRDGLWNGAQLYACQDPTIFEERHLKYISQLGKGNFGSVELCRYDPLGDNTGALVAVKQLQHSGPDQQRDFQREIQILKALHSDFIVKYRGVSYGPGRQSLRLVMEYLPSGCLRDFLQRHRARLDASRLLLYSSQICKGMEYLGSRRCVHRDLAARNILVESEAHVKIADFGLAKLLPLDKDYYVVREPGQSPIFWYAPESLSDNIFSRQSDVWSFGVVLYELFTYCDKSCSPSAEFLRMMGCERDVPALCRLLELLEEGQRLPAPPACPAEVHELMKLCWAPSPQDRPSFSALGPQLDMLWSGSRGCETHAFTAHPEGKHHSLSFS
# Description: For the compounds of the Examples, JAK activity of each of the compounds was verified using the JAK Human TK Kinase Enzymatic Radiometric Kinase Profiler Assay service provided by Eurofins Scientific.
# The activity was verified after inducing a reaction at the JAK 1, 2 and 3 active sites using radioactively labeled ATP.
# [4] = tested on: Raw 264.7 cell line; test: NO scavenging activity in LPS-treated immune cells (Griess reagent); format: cell-based; conditions: Mus musculus, RAW264.7, Raw 264.7, LPS 500 ng/mL, 24 hours, read-out: NO Scavenging Activity (%) (Mean±SD)
# [5] = in vivo
# Procedure: Specifically, the experimental animals were twelve six-week-old C57BL/6 male mice. The experimental animals were housed in polycarbonate cages in groups of four, and had free access to food and water. The animal housing room was maintained at a temperature of 20±1°C and humidity of about 50±5%, with a constant 12-hour light/dark cycle. The experimental animals were acclimated to the animal room environment for one week, and then randomly divided into three groups of four animals each based on body weight.
smiles,measurement,setting,value
"C[C@@H]1CCN(C(=O)CC#N)C[C@@H]1N(C)c1ncnc2c1ccn2C(=O)Nc1ccccc1N [Example 1, N-(2-aminophenyl)-4-(((3R,4R)-1-(2-cyanoacetyl)-4-methylpiperidin-3-yl) (methyl)amino)-7H-pyrrolo[2,3-d]pyrimidine-7-carboxamide]",alleviation of rheumatoid arthritis compared with tofacitinib,"[1]; 30 mg/kg and 60 mg/kg oral once daily, entire period of the experiment",comparable to or higher than 40 mg/kg of tofacitinib
same,average rheumatoid arthritis score compared with tofacitinib,"[1]; 30 mg/kg oral once daily, FIG. 6",comparable to that of the group administered with 40 mg/kg of tofacitinib
same,rheumatoid arthritis-alleviating efficacy (arthritis score),"[1]; 30 mg/kg oral once daily, day 42 to day 47 after disease induction, FIG. 6",no statistically significant alleviating efficacy was observed
same,rheumatoid arthritis-alleviating efficacy (arthritis score),"[1]; 30 mg/kg oral once daily, day 49 to the end of the experiment (p<0.05), FIG. 6",statistically significant alleviating efficacy was observed again
same,rheumatoid arthritis-alleviating efficacy (arthritis score),"[1]; 30 mg/kg oral once daily, from day 35 after disease induction (p<0.05), FIG. 6",Alleviating efficacy was observed
same,rheumatoid arthritis-alleviating efficacy compared with tofacitinib,"[1]; 60 mg/kg oral once daily, from day 33 after disease induction (p<0.01) to the end, FIG. 6",comparable to or higher than that of the group administered with 40 mg/kg of tofacitinib
same,JAK 1 Activity,[2]; 0.1 nM,101
same,JAK 1 Activity,[2]; 1 nM,102
same,JAK 1 Activity,[2]; 10 nM,45
same,JAK 1 Activity,[2]; 100 nM,7
same,JAK 3 Activity,[3]; 0.1 nM,94
same,JAK 3 Activity,[3]; 1 nM,95
same,JAK 3 Activity,[3]; 10 nM,55
same,JAK 3 Activity,[3]; 100 nM,16
same,activity at 10 µM,[4],77.4 ± 0.52%
same,MTD at 4 days,"[5]; male, mouse, in vivo, po",1600 mg/kg
same,mortality,"[5]; mice, oral once daily, 200, 400, 800, 1,600 mg/kg escalated daily",no mortality was observed
